# Measurements from patent publication US20240342292A1, “Compounds for the Degradation of EGFR Kinase” (BeiGene Switzerland GmbH, priority 2021, published 2024).
# What was measured:
# Del19/T790M/C797S EGFR = experiment: EGFR degradation HTRF assay in H1975-clone #28 (DTC) cells; format: cell-based; conditions: H1975 # 28 DTC (Del19/T790M/C797S), 16h treatment; for DC50: HTRF; for Dmax (%): maximum percentage of degradation
# In short: (§1)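 H1975 clones stably overexpressing mutant EGFR by lentivirus, with endogenous EGFR knocked out by sgRNA and homozygosity confirmed by sequencing, were treated 16 h at 37 °C with compounds in 0.2% DMSO medium, 8 doses from 10 uM in 5-fold dilution. Lysates were read by HTRF (665/620 nm); DC50 came from a four-parameter fit.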
# L858R/T790M/C797S EGFR = molecular target: T1, L858R/T790M/C797S EGFR (Homo sapiens, UniProt P00533, C797S/L858R/T790M); experiment: EGFR degradation HTRF assay in H1975-clone #25 (LTC) cells; format: cell-based; conditions: 16h treatment; for DC50: H1975 # 25-LTC (L858R/T790M/C797S), HTRF; for Dmax: NCI-H1975, H1975 # 25-LTC (L858R/T790M/C797S), maximum percentage of degradation
# T1 construct: expressed in transfected cells; host or cells: H1975 clone #25 (lentiviral over-expression, endogenous EGFR knocked out by sgRNA)
# In short: as §1
# T1 sequence (P00533 25-1210 T790M/C797S/L858R): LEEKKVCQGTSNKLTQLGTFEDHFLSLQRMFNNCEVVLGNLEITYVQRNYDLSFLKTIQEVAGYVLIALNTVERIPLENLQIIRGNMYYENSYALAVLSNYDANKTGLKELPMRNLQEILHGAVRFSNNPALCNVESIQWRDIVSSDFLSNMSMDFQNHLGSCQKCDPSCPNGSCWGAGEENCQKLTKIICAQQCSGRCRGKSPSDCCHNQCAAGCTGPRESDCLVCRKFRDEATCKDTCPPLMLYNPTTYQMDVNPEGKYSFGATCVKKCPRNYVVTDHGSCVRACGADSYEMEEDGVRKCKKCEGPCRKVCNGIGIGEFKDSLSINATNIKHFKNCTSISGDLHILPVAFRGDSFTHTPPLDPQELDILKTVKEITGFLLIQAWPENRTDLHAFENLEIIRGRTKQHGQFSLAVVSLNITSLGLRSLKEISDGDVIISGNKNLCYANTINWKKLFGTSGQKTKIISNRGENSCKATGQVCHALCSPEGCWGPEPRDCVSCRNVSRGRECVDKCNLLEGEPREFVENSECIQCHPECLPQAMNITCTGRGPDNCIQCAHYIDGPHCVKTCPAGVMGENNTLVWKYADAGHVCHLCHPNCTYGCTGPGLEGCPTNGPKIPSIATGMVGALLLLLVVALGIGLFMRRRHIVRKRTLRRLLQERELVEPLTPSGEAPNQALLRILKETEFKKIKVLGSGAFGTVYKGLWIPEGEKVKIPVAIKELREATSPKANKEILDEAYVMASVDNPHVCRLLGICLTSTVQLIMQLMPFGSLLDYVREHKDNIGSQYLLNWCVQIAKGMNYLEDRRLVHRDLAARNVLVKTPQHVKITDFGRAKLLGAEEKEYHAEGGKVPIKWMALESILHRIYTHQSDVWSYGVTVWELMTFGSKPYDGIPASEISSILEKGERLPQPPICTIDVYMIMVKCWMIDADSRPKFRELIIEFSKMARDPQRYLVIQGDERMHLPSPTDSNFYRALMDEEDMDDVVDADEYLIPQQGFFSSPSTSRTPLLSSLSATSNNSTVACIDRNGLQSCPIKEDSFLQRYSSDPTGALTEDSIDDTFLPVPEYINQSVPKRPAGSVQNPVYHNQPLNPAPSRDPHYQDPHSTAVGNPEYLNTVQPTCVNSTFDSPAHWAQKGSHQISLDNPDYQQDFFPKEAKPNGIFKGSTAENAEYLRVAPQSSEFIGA
Structure (SMILES),DC50 (Del19/T790M/C797S EGFR) [nM],Dmax (%) (Del19/T790M/C797S EGFR),DC50 (L858R/T790M/C797S EGFR) [nM],Dmax (L858R/T790M/C797S EGFR) [%]
"Cc1cc2cc(n1)-c1cnn(C)c1OCCC[C@@H](C)CN1/C(=N/C2=O)Nc2ccc(C(=O)N(C)C3CCN(CC4CN(c5cc(F)c([C@H]6CCC(=O)NC6=O)c(F)c5)C4)CC3)cc21 [Example 286, (R,E)-N-(1-((1-(4-((R)-2,6-dioxopiperidin-3-yl)-3,5-difluorophenyl)azetidin-3-yl)methyl)piperidin-4-yl)-N,1^1,2^6,7-tetramethyl-3-oxo-5^2,5^3-dihydro-1^1H,5^1H-11-oxa-4-aza-5(2,1)-benzo[d]imidazola-2(2,4)-pyridina-1(4,5)-pyrazolacycloundecaphane-5^6-carboxamide]",0.652,72.5,0.45,91.2
"CO[C@@H]1CN(CCc2cc(F)c([C@H]3CCC(=O)NC3=O)c(F)c2)CC[C@@H]1NC(=O)c1ccc2c(c1)N1C[C@H](C)CCCOc3c(cnn3C)-c3cc(cc(C)n3)C(=O)/N=C/1N2 [Example 245, (R,E)-N-((3R,4S)-1-(4-((R)-2,6-dioxopiperidin-3-yl)-3,5-difluorophenethyl)-3-methoxypiperidin-4-yl)-1^1,2^5,7-trimethyl-3-oxo-5^2,5^3-dihydro-1^1H,5^1H-11-oxa-4-aza-5(2,1)-benzo[d]imidazola-2(2,4)-pyridina-1(4,5)-pyrazolacycloundecaphane-5^6-carboxamide]",0.534,81.9,0.487,94
"COC[C@@H]1CN(c2ccc3c(c2)N2C[C@H]4C[C@@H]4CCOc4c(cnn4C)-c4cc(cc(C)n4)C(=O)/N=C/2N3)CCN1C1CCN(c2cc(F)c([C@H]3CCC(=O)NC3=O)c(F)c2)CC1 [Example 468, (R)-3-(4-(4-((S)-4-((7'S,7^2R,E)-1^1,2^6-dimethyl-3-oxo-5^2,5^3-dihydro-1^1H,5^1H-10-oxa-4-aza-5(2,1)-benzo[d]imidazola-2(2,4)-pyridina-1(4,5)-pyrazola-7(1,2)-cyclopropanacyclodecaphane-5^6-yl)-2-(methoxymethyl)piperazin-1-yl)piperidin-1-yl)-2,6-difluorophenyl)piperidine-2,6-dione]",2.25,85.54,2.12,88.1
"Cc1cc2cc(n1)-c1cnn(C)c1OCCC[C@@H](C)CN1/C(=N/C2=O)Nc2ccc(N3CCN(C[C@H]4CCN(c5cc(F)c([C@H]6CCC(=O)NC6=O)c(F)c5)C4)CC3=O)cc21 [Example 464, (R)-3-(2,6-difluoro-4-((R)-3-((3-oxo-4-((R,E)-1^1,2^6,7-trimethyl-3-oxo-5^2,5^3-dihydro-1^1H,5^1H-11-oxa-4-aza-5(2,1)-benzo[d]imidazola-2(2,4)-pyridina-1(4,5)-pyrazolacycloundecaphane-5^6-yl)piperazin-1-yl)methyl)pyrrolidin-1-yl)phenyl)piperidine-2,6-dione]",0.678,82.71,0.646,85
"Cc1cc2cc(n1)-c1cnn(C)c1OCC[C@H]1C[C@@H]1CN1/C(=N/C2=O)Nc2ccc(N3CCN(C4CCN(c5cc(F)c([C@H]6CCC(=O)NC6=O)c(F)c5)CC4)CC3)cc21 [Example 391, (R)-3-(4-(4-(4-((7^1S,7^2R,E)-1^1,2^6-dimethyl-3-oxo-5^2,5^3-dihydro-1^1H,5^1H-10-oxa-4-aza-5(2,1)-benzo[d]imidazola-2(2,4)-pyridina-1(4,5)-pyrazola-7(1,2)-cyclopropanacyclodecaphane-5^6-yl)piperazin-1-yl)piperidin-1-yl)-2,6-difluorophenyl)piperidine-2,6-dione]",1.54,85.34,1.56,87.5
"Cc1cc2cc(n1)-c1cnn(C)c1OCCC[C@@H](C)CN1/C(=N/C2=O)Nc2ccc(N(C)C3CCN(C4CCN(c5cc(F)c([C@H]6CCC(=O)NC6=O)c(F)c5)CC4)CC3)cc21 [Example 214, (R)-3-(2,6-difluoro-4-(4-(methyl((R,E)-1^1,2^6,7-trimethyl-3-oxo-5^2,5^3-dihydro-1^1H,5^1H-11-oxa-4-aza-5(2,1)-benzo[d]imidazola-2(2,4)-pyridina-1(4,5)-pyrazolacycloundecaphane-5-yl)amino)-[1,4′-bipiperidin]-1′-yl)phenyl)piperidine-2,6-dione]",1.32,72.32,2.59,79.4
"Cc1cc2cc(n1)-c1cnn(C)c1OCCC[C@@H](C)CN1/C(=N/C2=O)Nc2ccc(C(=O)N(C)C3CCN(CCC4CN(c5cc(F)c([C@H]6CCC(=O)NC6=O)c(F)c5)C4)CC3)cc21 [Example 285, (R,E)-N-(1-(2-(1-(4-((R)-2,6-dioxopiperidin-3-yl)-3,5-difluorophenyl)azetidin-3-yl)ethyl)piperidin-4-yl)-N,1^1,2^6,7-tetramethyl-3-oxo-5^2,5^3-dihydro-1^1H,5^1H-11-oxa-4-aza-5(2,1)-benzo[d]imidazola-2(2,4)-pyridina-1(4,5)-pyrazolacycloundecaphane-5^6-carboxamide]",0.667,77.98,0.651,89.8
"Cc1cc2cc(n1)-c1cnn(C)c1OCCC[C@@H](C)CN1/C(=N/C2=O)Nc2ccc(C(=O)N3CC[C@H](N(C)CCc4cc(F)c([C@H]5CCC(=O)NC5=O)c(F)c4)C3)cc21 [Example 297, (R)-3-(2,6-difluoro-4-(2-(methyl((S)-1-((R,E)-1^1,2^6,7-trimethyl-3-oxo-5^2,5^3-dihydro-1^1H,5^1H-11-oxa-4-aza-5(2,1)-benzo[d]imidazola-2(2,4)-pyridina-1(4,5)-pyrazolacycloundecaphane-5^6-carbonyl)pyrrolidin-3-yl)amino)ethyl)phenyl)piperidine-2,6-dione]",0.292,79.64,0.432,91.7
"Cc1cc2cc(n1)-c1cnn(C)c1OCCC[C@@H](C)CN1/C(=N/C2=O)Nc2ccc(C(=O)N(C)C3CCN(CC4CCN(c5cc(F)c([C@H]6CCC(=O)NC6=O)c(F)c5)CC4)CC3)cc21 [Example 287, (R,E)-N-(1-((1-(4-((R)-2,6-dioxopiperidin-3-yl)-3,5-difluorophenyl)piperidin-4-yl)methyl)piperidin-4-yl)-N,1^1,2^6,7-tetramethyl-3-oxo-5^2,5^3-dihydro-1^1H,5^1H-11-oxa-4-aza-5(2,1)-benzo[d]imidazola-2(2.4)-pyridina-1(4,5)-pyrazolacycloundecaphane-5^6-carboxamide]",0.918,88.53,0.581,93.5
"Cc1cc2cc(n1)-c1cnn(C)c1OCCC[C@@H](C)CN1/C(=N/C2=O)Nc2ccc(C(=O)N[C@H]3CCN(CCc4cc(F)c([C@H]5CCC(=O)NC5=O)c(F)c4)CC3(F)F)cc21 [Example 337, (R,E)-N—((S)-1-(4-((R)-2,6-dioxopiperidin-3-yl)-3,5-difluorophenethyl)-3,3-difluoropiperidin-4-yl)-1^12^6,7-trimethyl-3-oxo-5^2,5^3-dihydro-1^1H,5^1H-11-oxa-4-aza-5(2,1)-benzo[d]imidazola-2(2,4)-pyridina-1(4,5)-pyrazolacycloundecaphane-5^6-carboxamide]",0.608,79.69,0.535,92
